Where two headings read alike, the source gives them in different places.
Columns and labels:
[1] = molecular target: T1, M2 -type muscarinic cholinergic receptor (Cavia porcellus, UniProt H0VRN8); assay: Affinity for the M2-type muscarinic cholinergic receptor, displacement of tritiated N-methylscopolamine (3H-NMS) on smooth guinea-pig ileum muscle homogenate; type: binding
T1 construct: on a smooth guinea-pig ileum muscle homogenate; from tissue; host or cells: guinea-pig ileum smooth muscle homogenate
T1 sequence (H0VRN8 1-466): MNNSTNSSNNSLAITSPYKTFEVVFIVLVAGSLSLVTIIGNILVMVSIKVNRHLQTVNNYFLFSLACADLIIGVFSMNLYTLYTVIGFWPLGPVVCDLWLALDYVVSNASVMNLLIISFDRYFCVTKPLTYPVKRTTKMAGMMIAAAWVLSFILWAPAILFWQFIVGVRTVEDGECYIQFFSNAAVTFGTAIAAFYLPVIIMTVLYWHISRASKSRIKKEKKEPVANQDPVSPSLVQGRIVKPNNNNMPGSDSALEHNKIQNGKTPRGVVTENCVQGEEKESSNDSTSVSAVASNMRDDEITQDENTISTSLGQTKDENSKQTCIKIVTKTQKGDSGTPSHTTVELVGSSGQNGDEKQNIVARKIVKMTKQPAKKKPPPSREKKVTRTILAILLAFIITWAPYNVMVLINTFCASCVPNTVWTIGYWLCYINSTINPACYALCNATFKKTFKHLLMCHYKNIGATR
Experimental: The M1 -type receptors are concentrated in certain regions of the brain, such as the hippocampus, the cerebral cortex and the striatum, and also in the sympathetic ganglia. These binding sites can be selectively labeled with tritiated pirenzepine (^3 H-PZ). The M2 -type receptors predominate in the heart and the ileum and can be labeled with tritiated N-methyl-scopolamine (^3 H-NMS). The selectivity of the products of the invention with respect to the M1 and M2 sites was determined by studying their in vitro interaction with ^3 H-PZ and ^3 H-NMS firmly bound with a high affinity to rat hippocampus membranes and smooth guinea-pig ileum muscle, respectively.
The interaction with the M2 -type muscarinic receptors was studied by in vitro measurement, on a smooth guinea-pig ileum muscle homogenate, of the displacement of tritiated N-methylscopolamine from its specific binding sites. […] The final volume is 1 ml. The reaction is stopped by centrifugation for 5 minutes at 15,000×g. The non-specific binding is determined in the presence of 10 mM atropine sulfate.
The IC50 for ^3 H-PZ displacement represents the affinity for the M1 receptor; the IC50 for ^3 H-NMS displacement represents the affinity for the M2 receptor.

[2] = system: M1 central muscarinic cholinergic receptors; assay: Antagonism of rotations induced by intrastriatal injection of pirenzepine in mice; type: in vivo, mice (Swiss, CD 1); conditions: for Pirenzepine antagonism ED50 i.p.: 15 minutes before intrastriatal pirenzepine 1 μg; for Pirenzepine antagonism ED50 p.o.: 30 minutes before intrastriatal pirenzepine 1 μg
Experimental: Pirenzepine (PZ) is a specific antagonist of the M1 central muscarinic cholinergic receptors. The intrastriatal injection of PZ into mice induces rotatory behavoir. The antagonism of this behavoir by the products according to the invention was studied.
The products according to the invention are administered either intraperitoneally (i.p.) or orally (p.o.) after solubilization in distilled water or suspension in a 5% solution of gum arabic. The control animals receive the pure solvent under the same conditions.
The animals used are female mice (Swiss, CD 1, Charles River, France) with a body weight of between 25 and 30 grams.
The pirenzepine is dissolved in a phosphate buffer and the pH of the solution is 6.
The test products or their solvents are administered in a volume of 0.4 ml per 20 g of body weight, either by i.p. injection or orally via an esophageal tube.
The number of contralateral rotations (rotations in the opposite direction to the side injected) was counted for three 2-minute periods after injection of the pirenzepine: 2nd to 4th, 8th to 10th and 13th to 15th minutes. Each treatment consists of 3 to 4 doses and 10 animals per dose. The total number of rotations and the percentage antagonism with respect to the control group are calculated for each treatment.

[3] = molecular target: T2, M1 -type muscarinic cholinergic receptor (Rattus norvegicus, UniProt P08482); assay: biochemical; type: binding; conditions: for ratio R of the IC50 values for the M1 and M2 receptors: selectivity, values correspond to IC50 M2 / IC50 M1
T2 sequence (P08482 1-460): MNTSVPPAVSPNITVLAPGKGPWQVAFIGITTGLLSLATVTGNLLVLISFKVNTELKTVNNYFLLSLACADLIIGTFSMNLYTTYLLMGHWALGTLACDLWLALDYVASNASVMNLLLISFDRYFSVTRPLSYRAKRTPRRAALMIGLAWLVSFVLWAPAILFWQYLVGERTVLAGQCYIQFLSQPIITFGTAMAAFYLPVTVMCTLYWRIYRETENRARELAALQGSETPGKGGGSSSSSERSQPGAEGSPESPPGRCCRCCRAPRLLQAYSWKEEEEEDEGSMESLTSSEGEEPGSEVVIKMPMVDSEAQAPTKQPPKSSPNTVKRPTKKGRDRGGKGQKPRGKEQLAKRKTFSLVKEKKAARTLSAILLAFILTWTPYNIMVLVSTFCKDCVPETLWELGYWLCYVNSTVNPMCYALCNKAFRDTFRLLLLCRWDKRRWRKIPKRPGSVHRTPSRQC
Experimental: The interaction of the molecules with the M1 -type muscarinic receptors was studied by in vitro measurement, on a rat hippocampus homogenate, of the displacement of tritiated pirenzepine from its specific binding sites. Aliquots (10 μl) of a 5% (w/v) rat hippocampus homogenate in an Na2 HPO4 buffer (50 mM, pH 7.40) are incubated for 2 hours at 4° C. in the presence of ^3 H-PZ (76 Ci/mmol; final concentration 1 nM) and increasing concentrations of the test product. The final volume is 2 ml. The reaction is stopped by centrifugation for 10 minutes at 50,000×g. After decantation and washing of the residues, the bound radioactivity is counted by liquid scintillation. The non-specific binding is determined in the presence of 10 μM atropine sulfate.

[4] = Acute toxicity, 24 hours mortality after i.p. administration to mice; conditions: mouse, in vivo, ip, female mice, 20 g
Experimental: Finally, the acute toxicity was determined for various products according to the invention. The products were administered intraperitoneally in increasing doses to groups of 10 female mice (Swiss, CD 1, Charles River, France) with a body weight of 20 g.

[5] = guinea-pig ileum smooth muscle homogenate, 3H-NMS 0.3 nM, 20 minutes at 30° C., pH 7.5, read-out: IC50 3H-NMS (M2)
[6] = rat hippocampus homogenate, 3H-PZ 1 nM, 2 hours at 4° C., pH 7.40, read-out: IC50 3H-PZ (M1)

Compound	IC50 [1] [µM]	Pirenzepine antagonism ED50 i.p. [2] [mg/kg]	Pirenzepine antagonism ED50 p.o. [2] [mg/kg]	IC50 [3] [µM]	ratio R of the IC50 values for the M1 and M2 receptors [3]	LD50 at 24 h [4] [mg/kg]	IC50 ([3]; read-out: IC50 3H-PZ (M1)) [µM]	IC50 [1, 5] [µM]	IC50 [3, 6] [µM]
COC(=O)C1=CCCN(C)C1 [Arecoline, reference compound]	4.5	1	0.5						
O=C1CCCN1CC#CCN1CCCC1 [Oxotremorine, reference compound]	0.2	0.005		0.24	1				
Cl.Cl.c1ccc2c(c1)CCc1sc(NCCN3CCOCC3)nc1-2 [SR 44273 A, 2-(2-Morpholinoethylamino)-4,5-dihydronaphtho[1,2-d]thiazole dihydrochloride]						> 100			
CCN(CC)CCNc1ncc(-c2ccccc2)s1.Cl.Cl [SR 44318 A, 2-[(2-Diethylaminoethyl)amino]-5-phenylthiazole dihydrochloride]		1.5	3		11		3.4	38	
CCN(CC)CCNc1nc2c(s1)CCCc1ccccc1-2 [SR 44323 A]		10			5			8.5	1.7
CCN(CC)CCCNc1nc2c(s1)CCCc1ccccc1-2 [SR 44326 A]		3			> 45			> 100	2.2
CN(C)CCCNc1nc2c(s1)CCCc1ccccc1-2 [SR 44327 A]		10			20			38	1.9
CCN(CC)CCCNc1ncc(-c2ccccc2)s1 [SR 44346 A]		1			12.5			25	2
CCN(CC)CCNc1nc2c(s1)CCc1ccccc1-2 [SR 44393 A]		3			15			42	2.7
CCN(CC)CCNc1nc2c(s1)CCCc1ccc([N+](=O)[O-])cc1-2.Cl.Cl [SR 44411 A, 2-[(2-Diethylaminoethyl)amino]-9-nitro-5,6-dihydro-4H-benzo[6,7]cyclohepta[1,2-d]thi azole dihydrochloride]		15			7		0.9	6.7	
Cc1cc(C)c(-c2csc(NCCCN(C)C)n2)c(C)c1 [SR 44421 A]			0.2		> 27			> 100	3.6
CCN(CC)CCCNc1nc(-c2ccccc2)c(-c2ccccc2)s1 [SR 44435 A]		2			8			3	0.36
Cc1nc(NCCCN(C)C)sc1-c1ccccc1 [SR 44467 A]			3		25			38	1.5
CN(C)CCCNc1nc(-c2ccc(Cl)cc2)cs1 [SR 44493 A]			0.3		28			45	1.6
CN(C)CCCNc1nc(-c2ccc(F)cc2)cs1 [SR 44494 A]			2		100			80	0.8
Cc1sc(NCCCN)nc1-c1ccccc1.Cl.Cl [SR 44514 A, 2-[(3-Aminopropyl)amino]-5-methyl-4-phenylthiazole dihydrochloride]		3			> 200		0.5	> 100	
CCN(CC)CCCNc1nc(-c2ccc3ccccc3c2)cs1 [SR 44573 A]			2.50		7			13	1.8
CN(C)CCCNc1nc(-c2ccc(Cl)cc2Cl)cs1 [SR 44749 A]			3		14			26	1.8
CN(C)CCCNc1nc(-c2ccc(F)cc2F)cs1 [SR 44770 A]			3		43			26	0.6
Cc1cc(C)c(-c2csc(NCc3cccnc3)n2)c(C)c1 [SR 44839 A]			0.2		250			100	0.4
Cc1cc(C)c(-c2csc(NCCc3ccncc3)n2)c(C)c1 [SR 44856 A]			3		> 300			> 100	0.3
CN1CCN(CCCNc2nc(-c3ccc(F)cc3)cs2)CC1 [SR 44862 A]			3		11			34	3
Cc1cc(C)c(-c2csc(NCCCN3CCN(C)CC3)n2)c(C)c1 [SR 44915 A]			3		100			40	0.4
Cc1cc(C)c(-c2csc(NCCCN3CCCC3)n2)c(C)c1 [SR 44964 A]			3		31			28	0.9
CCN1CCCC(Nc2nc(-c3c(C)cc(C)cc3C)cs2)C1 (centres unmarked) [SR 44965 A]			3		50			60	1.2
Cc1ccccc1-c1csc(NCCCN(C)C)n1 [SR 45001 A]			3		11			30	2.6
CN(C)CCCNc1nc(-c2ccccc2)c(-c2ccccc2)s1 [SR 45015 A]			0.70		13			4	0.3
CN(C)CCCNc1nc(Cc2ccccc2)c(-c2ccccc2)s1 [SR 45016 A]			2		55			5.5	0.1
CNCCCNc1nc(-c2c(C)cc(C)cc2C)cs1 [SR 45030 A]			1		50			80	1.6

From patent US5378706A, “Fused-thiazole derivatives active on the cholinergic system, and pharmaceutical compositions containing same” (Sanofi, priority 1987, dated 1995)
